{
  "source": "patent US9815846B2",
  "about": "(Merck Sharp & Dohme Corp., priority 2014, dated 2017)",
  "data": [
    {"biological_target": "human TrkA receptor (Homo sapiens (Human), UniProt P04629)", "sequence (P04629 33-796)": "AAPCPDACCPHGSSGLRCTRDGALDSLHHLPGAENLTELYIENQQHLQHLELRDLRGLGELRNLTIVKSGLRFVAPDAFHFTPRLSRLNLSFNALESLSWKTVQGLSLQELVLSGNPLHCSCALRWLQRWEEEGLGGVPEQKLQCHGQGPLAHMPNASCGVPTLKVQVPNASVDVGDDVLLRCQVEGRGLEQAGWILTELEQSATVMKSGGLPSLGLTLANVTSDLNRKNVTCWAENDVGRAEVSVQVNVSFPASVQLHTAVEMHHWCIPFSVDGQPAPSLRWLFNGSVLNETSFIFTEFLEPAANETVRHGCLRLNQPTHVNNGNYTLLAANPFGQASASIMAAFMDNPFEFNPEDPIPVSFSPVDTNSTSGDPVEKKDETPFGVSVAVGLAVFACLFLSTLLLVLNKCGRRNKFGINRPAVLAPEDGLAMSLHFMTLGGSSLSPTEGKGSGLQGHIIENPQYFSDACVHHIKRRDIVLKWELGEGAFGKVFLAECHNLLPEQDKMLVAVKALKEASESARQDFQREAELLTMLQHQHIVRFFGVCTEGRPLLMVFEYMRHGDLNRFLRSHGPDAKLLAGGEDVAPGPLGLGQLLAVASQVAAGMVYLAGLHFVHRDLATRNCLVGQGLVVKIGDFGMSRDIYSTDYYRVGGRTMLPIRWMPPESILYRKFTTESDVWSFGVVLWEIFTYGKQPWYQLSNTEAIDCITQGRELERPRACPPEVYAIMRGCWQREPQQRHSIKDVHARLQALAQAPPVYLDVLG", "experiment": "DiscoverX PathHunter TrkA functional assay (NGF-stimulated U2OS cells)", "format": "cell-based", "details": "U2OS cells expressing human TrkA-PK, Shc1-EA and p75NTR; compound 1 h, then NGF at ~80% of maximal response for 3 h; luminescence", "units": {"IC50": "nM"}, "values": [
      {"smiles": "CN(Cc1ccc(NC(=O)c2cc(-c3ccn(C)n3)c(C(F)(F)F)cc2F)c(-c2ccccc2)n1)C(=O)NCCO", "note": "[Example 79, 2-fluoro-N-(6-((3-(2-hydroxyethyl)-1-methylureido)methyl)-2-phenylpyridin-3-yl)-5-(1-methyl-1H-pyrazol-3-yl)-4-(trifluoromethyl)benzamide]", "IC50": 1.1},
      {"smiles": "Cn1ccc(-c2cc(C(=O)Nc3ccc(CC(N)=O)nc3-c3ccccc3)c(F)cc2C(F)(F)F)n1", "note": "[Example 102, N-(6-(2-Amino-2-oxoethyl)-2-phenylpyridin-3-yl)-2-fluoro-5-(1-methyl-1H-pyrazol-3-yl)-4-(trifluoromethyl)benzamide]", "IC50": 0.79},
      {"smiles": "Cn1ccc(-c2cc(C(=O)Nc3cnc(CS(C)(=O)=O)nc3-c3ccccc3)c(F)cc2C(F)(F)F)n1", "note": "[Example 199, 2-Fluoro-5-(1-methyl-1H-pyrazol-3-yl)-N-(2-((methylsulfonyl)methyl)-4-phenylpyrimidin-5-yl)-4-(trifluoromethyl)benzamide]", "IC50": 4},
      {"smiles": "Cn1ccc(-c2cc(C(=O)Nc3ccc(C4COC(=O)N4)nc3-c3ccccc3)c(F)cc2C(F)(F)F)n1", "note": "(single isomer, unassigned) [Example 196, (R or S)-2-Fluoro-5-(1-methyl-1H-pyrazol-3-yl)-N-(6-(2-oxooxazolidin-4-yl)-2-phenylpyridin-3-yl)-4-(trifluoromethyl)benzamide]", "IC50": 0.19},
      {"smiles": "Cc1ncc(NC(=O)c2ccc(C(F)(F)F)c(-c3ccn(C)n3)c2)c(-c2cccc(CO)c2)n1", "note": "[Example 44, N-(4-(3-(Hydroxymethyl)phenyl)-2-methylpyrimidin-5-yl)-3-(1-methyl-1H-pyrazol-3-yl)-4-(trifluoromethyl)benzamide]", "IC50": 20},
      {"smiles": "Cn1ccc(-c2cc(C(=O)Nc3cnc(CNC(=O)C(C)(N)CO)nc3-c3ccccc3)c(F)cc2C(F)(F)F)n1", "note": "(single isomer, unassigned) [Example 66, (S or R)-N-(2-((2-amino-3-hydroxy-2-methylpropanamido)methyl)-4-phenylpyrimidin-5-yl)-2-fluoro-5-(1-methyl-1H-pyrazol-3-yl)-4-(trifluoromethyl)benzamide]", "IC50": 1.2},
      {"smiles": "O=C(Nc1cnc(CO)nc1-c1ccccc1)c1ccc(C(F)(F)F)c(-c2cc[nH]n2)c1", "note": "[Example 40, N-(2-(hydroxymethyl)-4-phenylpyrimidin-5-yl)-3-(1H-pyrazol-3-yl)-4-(trifluoromethyl)benzamide]", "IC50": 12},
      {"smiles": "Cn1ccc(-c2cc(C(=O)Nc3cc(S(C)(=O)=O)cnc3-c3ccccc3)c(F)cc2C(F)(F)F)n1", "note": "[Example 194, 2-Fluoro-5-(1-methyl-1H-pyrazol-3-yl)-N-(5-(methylsulfonyl)-2-phenylpyridin-3-yl)-4-(trifluoromethyl)benzamide]", "IC50": 2.6},
      {"smiles": "Cn1ccc(-c2cc(C(=O)Nc3cnc(CC4CCNC4=O)nc3-c3ccccc3)c(F)cc2C(F)(F)F)n1", "note": "(single isomer, unassigned) [Example 191, (R or S)-2-Fluoro-5-(1-methyl-1H-pyrazol-3-yl)-N-(2-(2-oxopyrrolidin-3-yl)methyl)-4-phenylpyrimidin-5-yl)-4-(trifluoromethyl)benzamide]", "IC50": 4.5},
      {"smiles": "Cn1ccc(-c2cc(C(=O)Nc3cnc(CN)nc3-c3ccccc3)ccc2C(F)(F)F)n1", "note": "[Example 42, N-(2-(Aminomethyl)-4-phenylpyrimidin-5-yl)-3-(1-methyl-1H-pyrazol-3-yl)-4-(trifluoromethyl)benzamide]", "IC50": 21},
      {"smiles": "Cn1ccc(-c2cc(C(=O)Nc3cnc(CNC(=O)OC(C)(C)C)nc3-c3ccccc3)ccc2C(F)(F)F)n1", "note": "[Example 41, t-Butyl ((5-(3-(1-methyl-1H-pyrazol-3-yl)-4-(trifluoromethyl)benzamido)-4-phenylpyrimidin-2-yl)methyl)carbamate]", "IC50": 5},
      {"smiles": "Cc1ncc(NC(=O)c2ccc(C(F)(F)F)c(-c3ncco3)c2)c(-c2ccccc2)n1", "note": "[Example 20, N-(2-methyl-4-phenylpyrimidin-5-yl)-3-(1,3-oxazol-2-yl)-4-(trifluoromethyl)benzamide]", "IC50": 15},
      {"smiles": "CC(=O)NCc1cccc(-c2nc(C)ncc2NC(=O)c2cc(-c3ccn(C)n3)c(C(F)(F)F)cc2F)c1", "note": "[Example 132, N-(4-(3-(Acetamidomethyl)phenyl)-2-methylpyrimidin-5-yl)-2-fluoro-5-(1-methyl-1H-pyrazol-3-yl)-4-(trifluoromethyl)benzamide]", "IC50": 16},
      {"smiles": "Cc1ncc(NC(=O)c2ccc(C(F)(F)F)c(-c3cscn3)c2)c(-c2ccccc2)n1", "note": "[Example 12, N-(2-methyl-4-phenylpyrimidin-5-yl)-3-(1,3-thiazol-4-yl)-4-(trifluoromethyl)benzamide]", "IC50": 36},
      {"smiles": "CNC(=O)c1ccc(-c2cnc(-c3ccccc3)c(NC(=O)c3cc(-c4cc[nH]n4)c(C(F)(F)F)cc3F)c2)cc1", "note": "[Example 166, 2-fluoro-N-(5-(4-(methylcarbamoyl)phenyl)-2-phenylpyridin-3-yl)-5-(1H-pyrazol-3-yl)-4-(trifluoromethyl)benzamide]", "IC50": 12},
      {"smiles": "Cn1ccc(-c2cc(C(=O)Nc3cc(C(=O)O)cnc3-c3ccccc3)c(F)cc2C(F)(F)F)n1", "note": "[Example 81, 5-(2-Fluoro-5-(1-methyl-1H-pyrazol-3-yl)-4-(trifluoromethyl)benzamido)-6-phenylnicotinic acid]", "IC50": 14},
      {"smiles": "Cn1ccc(-c2cc(C(=O)Nc3cnc(CNC(=O)CO)nc3-c3ccccc3)ccc2C(F)(F)F)n1", "note": "[Example 50, N-(2-((2-hydroxyacetamido)methyl)-4-phenylpyrimidin-5-yl)-3-(1-methyl-1H-pyrazol-3-yl)-4-(trifluoromethyl)benzamide]", "IC50": 3.6},
      {"smiles": "Cc1ncc(NC(=O)c2ccc(C(F)(F)F)c(-c3cc[nH]n3)c2)c(-c2ccccc2)n1", "note": "[Example 21, N-(2-methyl-4-phenylpyrimidin-5-yl)-3-(1H-pyrazol-3-yl)-4-(trifluoromethyl)benzamide]", "IC50": 35},
      {"smiles": "Cn1ccc(-c2cc(C(=O)Nc3cc4c(nc3-c3ccccc3)CCN(C(=O)CN)C4)ccc2C(F)(F)F)n1", "note": "[Example 156, N-(6-glycyl-2-phenyl-5,6,7,8-tetrahydro-1,6-naphthyridin-3-yl)-3-(1-methyl-1H-pyrazol-3-yl)-4-(trifluoromethyl)benzamide]", "IC50": 1},
      {"smiles": "COCC(=O)NCc1ccc(NC(=O)c2cc(-c3ccn(C)n3)c(C(F)(F)F)cc2F)c(-c2ccccc2)n1", "note": "[Example 58, 2-fluoro-N-(6-((2-methoxyacetamido)methyl)-2-phenylpyridin-3-yl)-5-(1-methyl-1H-pyrazol-3-yl)-4-(trifluoromethyl)benzamide]", "IC50": 0.19},
      {"smiles": "Cn1ccc(-c2cc(C(=O)Nc3cnc(CN4C(=O)CCC4=O)nc3-c3ccccc3)c(F)cc2C(F)(F)F)n1", "note": "[Example 187, N-(2-((2,5-dioxopyrrolidin-1-yl)methyl)-4-phenylpyrimidin-5-yl)-2-fluoro-5-(1-methyl-1H-pyrazol-3-yl)-4-(trifluoromethyl)benzamide]", "IC50": 0.68},
      {"smiles": "Cn1ccc(-c2cc(C(=O)Nc3cnc(C4CCCNC4=O)nc3-c3ccccc3)c(F)cc2C(F)(F)F)n1", "note": "(stereo not drawn) [Example 193, 2-Fluoro-5-(1-methyl-1H-pyrazol-3-yl)-N-(2-(2-oxopiperidin-3-yl)-4-phenylpyrimidin-5-yl)-4-(trifluoromethyl)benzamide]", "IC50": 3.9},
      {"smiles": "CN1CC(NC(=O)c2cnc(-c3ccccc3)c(NC(=O)c3cc(-c4cc[nH]n4)c(C(F)(F)F)cc3F)c2)C1", "note": "[Example 90, 5-(2-fluoro-5-(1H-pyrazol-3-yl)-4-(trifluoromethyl)benzamido)-N-(1-methylazetidin-3-yl)-6-phenylnicotinamide]", "IC50": 80},
      {"smiles": "Cn1ccc(-c2cc(C(=O)Nc3cnc4c(c3-c3ccccc3)CN(C(=O)CO)CC4)ccc2C(F)(F)F)n1", "note": "[Example 160, N-(6-(2-hydroxyacetyl)-4-phenyl-5,6,7,8-tetrahydro-1,6-naphthyridin-3-yl)-3-(1-methyl-1H-pyrazol-3-yl)-4-(trifluoromethyl)benzamide]", "IC50": 4.7}
    ]}
  ]
}
